# Source: US20110257233A1, “BENZOISOTHIAZOLONES AS INHIBITORS OF PHOSPHOMANNOSE ISOMERASE” (Sanford-Burnham Medical Research Institute, priority 2010, published 2011)
# Where two headings read alike, the source gives them in different places.
# Key:
# [1] = system: Candida albicans (ATCC 10231); experiment: Microbial in vitro assay 640000; type: cell-based
# Procedure: The methods employed in this study were adapted from the scientific literature to maximize reliability and reproducibility. The reference standards were run as an integral part of each assay to ensure the validity of the results obtained. The assays were performed under conditions described below. The literature reference(s) for each assay are also provided as follows: Enza Di Modugno, Isabelle […]. […] Antimicrobial Agents Chemotherapy 3: 40-48; […]., Pursiano, […]. and Price, K. E. (1973) In Vitro Activity of the Tribactam GV 104326 against Gram-Positive, Gram-Negative, and Anaerobic Bacteria. Antimicrobial Agents and Chemotherapy, 38: 2362-2368, 1994; Enza Di Modugno, Isabelle […]. […] Antimicrobial Agents Chemotherapy 3: 40-48; and […]., Pursiano, […]. and Price, K. E. (1973) In vitro antibacterial activity of SM-7338, a carbapenem antibiotic with stability to dehydropeptidase I Antimicrobial Agents, Chemotherapy, 33 #2:215-222, 1989. 640000 Candida albicans (ATCC 10231); Culture Medium: Fluid Sabouraud Medium; […] Incubation Time/Temp: 20 hours @ 37° C.; […] Quantitation Method: Turbidity Measurement.
# [2] = system: Cryptococcus neoformans (ATCC 24067); experiment: Microbial in vitro assay 647000; type: cell-based
# Procedure: The methods employed in this study were adapted from the scientific literature to maximize reliability and reproducibility. The reference standards were run as an integral part of each assay to ensure the validity of the results obtained. The assays were performed under conditions described below. The literature reference(s) for each assay are also provided as follows: Enza Di Modugno, Isabelle […]. […] Antimicrobial Agents Chemotherapy 3: 40-48; […]., Pursiano, […]. and Price, K. E. (1973) In Vitro Activity of the Tribactam GV 104326 against Gram-Positive, Gram-Negative, and Anaerobic Bacteria. Antimicrobial Agents and Chemotherapy, 38: 2362-2368, 1994; Enza Di Modugno, Isabelle […]. […] Antimicrobial Agents Chemotherapy 3: 40-48; and […]., Pursiano, […]. and Price, K. E. (1973) In vitro antibacterial activity of SM-7338, a carbapenem antibiotic with stability to dehydropeptidase I Antimicrobial Agents, Chemotherapy, 33 #2:215-222, 1989. […] Incubation Time/Temp: 2 days @37° C.; […] Time of Assessment: 2 days; Quantitation Method: Turbidity Measurement
# [3] = target: T1, phosphomannose isomerase (PMI) (Homo sapiens, UniProt P34949); experiment: PMI enzyme inhibition assay; type: biochemical
# T1 sequence (P34949 1-423): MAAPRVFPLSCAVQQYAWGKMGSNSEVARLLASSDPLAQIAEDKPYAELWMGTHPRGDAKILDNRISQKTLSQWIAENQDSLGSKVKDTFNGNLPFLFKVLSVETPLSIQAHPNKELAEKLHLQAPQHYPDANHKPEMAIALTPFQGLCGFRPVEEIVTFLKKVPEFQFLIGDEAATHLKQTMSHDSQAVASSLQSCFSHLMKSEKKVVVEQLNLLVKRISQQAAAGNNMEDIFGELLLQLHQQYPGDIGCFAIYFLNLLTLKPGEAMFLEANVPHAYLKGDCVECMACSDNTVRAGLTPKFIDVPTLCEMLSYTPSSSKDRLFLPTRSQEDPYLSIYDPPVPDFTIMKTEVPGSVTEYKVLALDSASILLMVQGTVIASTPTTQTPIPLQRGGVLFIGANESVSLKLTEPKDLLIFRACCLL
# [4] = target: T2, phosphomannomutase 2 (PMM) (Homo sapiens, UniProt O15305); experiment: PMM enzyme inhibition assay; type: biochemical; details: for IC50: mean of at least three determinations
# T2 sequence (O15305 1-246): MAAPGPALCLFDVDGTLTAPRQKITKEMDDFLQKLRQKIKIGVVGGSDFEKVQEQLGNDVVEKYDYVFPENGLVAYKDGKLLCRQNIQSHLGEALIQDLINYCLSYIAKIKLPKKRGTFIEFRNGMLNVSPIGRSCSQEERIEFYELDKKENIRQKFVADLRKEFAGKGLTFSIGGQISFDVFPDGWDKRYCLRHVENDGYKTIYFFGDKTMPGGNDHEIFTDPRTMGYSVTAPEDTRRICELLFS
# [5] = system: protein glycosylation (mannose incorporated in proteins); experiment: Cellular assay: 3H-mannose incorporated in proteins vs glycolysis; type: cell-based
# Procedure: A cellular assay was developed and utilized to provide proof-of-concept for the potential of the optimized PMI inhibitors as CDG therapeutics. […] Briefly. cells were preincubated with inhibitors and labeled with 3H-Mannose and 35S-Met/Cys. After washing and lysis, 3H- and 35S amounts were determined in the proteins.
# [6] = Plasma stability, mouse; type: in vitro ADME
# From the text: (§1) ADME (absorption, distribution, metabolism, elimination) provides an efficient means of discovering potential issues with respect to bioavailability and the potential for in vivo efficiency. The microsomal stability assay measures a compound's potential to be metabolized by the liver and can also identify metabolic liabilities. The plasma stability assay gives essential information on whether a compound will be degraded in plasma. Finally, the Parallel Artificial Membrane Permeability Assay (PAMPA) measures compound diffusion rates through an artificial membrane to give valuable information on a compounds potential for intestinal absorption and tissue and cell permeability. [table]
# [7] = Plasma stability, human; type: in vitro ADME
# From the text: as §1
# [8] = Microsomal stability, mouse; type: in vitro ADME; details: mouse liver microsomes
# From the text: as §1
# [9] = Microsomal stability, human; type: in vitro ADME; details: human liver microsomes
# From the text: as §1
# [10] = Parallel Artificial Membrane Permeability Assay (PAMPA); type: in vitro ADME; details: diffusion through a lipid membrane
# From the text: as §1
# [11] = system: Pseudomonas aeruginosa (ATCC 27853); experiment: Microbial in vitro assay 614030; type: cell-based; details: reference standard run with the assay
# Procedure: The methods employed in this study were adapted from the scientific literature to maximize reliability and reproducibility. The reference standards were run as an integral part of each assay to ensure the validity of the results obtained. The assays were performed under conditions described below. The literature reference(s) for each assay are also provided as follows: Enza Di Modugno, Isabelle […]. […] Antimicrobial Agents Chemotherapy 3: 40-48; […]., Pursiano, […]. and Price, K. E. (1973) In Vitro Activity of the Tribactam GV 104326 against Gram-Positive, Gram-Negative, and Anaerobic Bacteria. Antimicrobial Agents and Chemotherapy, 38: 2362-2368, 1994; Enza Di Modugno, Isabelle […]. […] Antimicrobial Agents Chemotherapy 3: 40-48; and […]., Pursiano, […]. and Price, K. E. (1973) In vitro antibacterial activity of SM-7338, a carbapenem antibiotic with stability to dehydropeptidase I Antimicrobial Agents, Chemotherapy, 33 #2:215-222, 1989.
# [12] = reference standard run with the assay
# [13] = mean of at least three determinations
molecule,measurement,setting,value
"C[C@@H]1[C@H](O)[C@@H](C)/C=C/C=C/C=C/C=C/C=C/C=C/C=C/[C@H](O[C@@H]2O[C@H](C)[C@@H](O)[C@H](N)[C@@H]2O)C[C@@H]2O[C@](O)(C[C@@H](O)C[C@@H](O)[C@H](O)CC[C@@H](O)C[C@@H](O)CC(=O)O[C@H]1C)C[C@H](O)[C@H]2C(=O)O [Amphotericin B Solubilized, reference compound]",CONCURRENT (reference compound data),[1]; [12],0.1 µg/mL
same,CONCURRENT (reference compound data),[2]; [12],0.1 µg/mL
"O=c1c2ccccc2sn1-c1ccccc1 [Compound 1, 2-Phenyl-2-hydrobenzo[d]isothiazol-3-one]",IC50,[3],6.4 µM
"Cc1cccc(-n2sc3ccccc3c2=O)c1 [Compound 3, 2-(3-Methylphenyl)-2-hydrobenzo[d]isothiazol-3-one]",IC50,[3]; [13],6 µM
"Cc1ccc(-n2sc3ccccc3c2=O)cc1 [Compound 4, 2-(4-Methylphenyl)-2-hydrobenzo[d]isothiazol-3-one]",IC50,[3]; [13],3.6 µM
"O=c1c2ccccc2sn1-c1cccc(C(F)(F)F)c1 [Compound 5, 2-[3(Trifluoromethyl)phenyl]-2-hydrobenzo[d]isothiazol-3-one]",IC50,[4],> 20 µM
same,IC50,[3]; [13],3.4 µM
"O=c1c2ccccc2sn1-c1cccc(Cl)c1 [Compound 7, 2(3-Chlorophenyl)-2-hydrobenzo[d]isothiazol-3-one]",IC50,[3]; [13],4.8 µM
COC(=O)c1cccc(-n2sc3ccccc3c2=O)c1 [Compound 9],IC50,[4],> 20 µM
same,IC50,[3]; [13],4.9 µM
CCOC(=O)c1ccc(-n2sc3ccccc3c2=O)cc1 [Compound 10],IC50,[3]; [13],7.2 µM
"CN(C)c1ccc(-n2sc3ccccc3c2=O)cc1 [Compound 12, 2-[4-(Dimethylamino)phenyl]-2-hydrobenzo[d]isothiazol-3-one]",IC50,[4],13.3 µM
same,IC50,[3]; [13],1.9 µM
same,fold increase in the amount of mannose incorporated in proteins vs glycolysis,[5]; 50 μM,1.0 fold
"COc1cccc(-n2sc3ccccc3c2=O)c1 [Compound 15, 2-(3-Methoxyphenyl)-2-hydrobenzo[d]isothiazol-3-one]",IC50,[4],> 20 µM
same,IC50,[3]; [13],3.7 µM
"Cc1ccccc1-n1sc2cc(F)ccc2c1=O [Compound 16, 6-Fluoro-2-o-tolylbenzo[d]isothiazol-3(2H)-one]",Plasma Stability (% remaining after 1 hour),[6],117.5 % remaining
same,Plasma Stability (% remaining after 1 hour),[7],49.7 % remaining
same,Microsomal Stability (% remaining after 1 hour),[8],90.03 % remaining
same,IC50,[3]; [13],2.9 µM
same,Microsomal Stability (% remaining after 1 hour),[9],90 % remaining
same,Permeability,[10],Medium
same,fold increase in the amount of mannose incorporated in proteins vs glycolysis,[5]; 25.0 μM,2.8 fold
same,fold increase in the amount of mannose incorporated in proteins vs glycolysis,[5]; 50 μM,1.7 fold
same,fold increase in the amount of mannose incorporated in proteins vs glycolysis,[5]; 12.5 (head prints no unit),2.7 fold
Cc1ccc(C)c(-n2sc3cc(F)ccc3c2=O)c1 [Compound 17],IC50,[4],7.3 µM
same,IC50,[3]; [13],1.1 µM
COc1ccc(-n2sc3cc(F)ccc3c2=O)cc1 [Compound 18],IC50,[4],12.9 µM
"O=c1c2cc(F)ccc2sn1-c1ccccc1 [Compound 19, 5-Fluoro-2-phenylbenzo[d]isothiazol-3(2H)-one]",IC50,[4],> 20 µM
same,PMM inhibition,[4]; tested up to 20 μM,inactive
same,MIC,"[1]; ATCC10231, Candida albicans, turbidity, read-out: minimal inhibitory concentration",3000 µg/mL
same,IC50,[3]; [13],1.3 µM
same,MIC,"[2]; ATCC24067, Cryptococcus neoformans, turbidity, read-out: minimal inhibitory concentration",1000 µg/mL
Cc1ccc(C)c(-n2sc3ccc(F)cc3c2=O)c1 [Compound 20],IC50,[4],> 20 µM
same,Plasma Stability (% remaining after 1 hour),[6],99.4 % remaining
same,Plasma Stability (% remaining after 1 hour),[7],96.7 % remaining
same,Microsomal Stability (% remaining after 1 hour),[8],85.04 % remaining
same,IC50,[3]; [13],1.9 µM
same,Microsomal Stability (% remaining after 1 hour),[9],100 % remaining
same,Permeability,[10],Medium
same,fold increase in the amount of mannose incorporated in proteins vs glycolysis,[5]; 25.0 μM,2.3 fold
same,fold increase in the amount of mannose incorporated in proteins vs glycolysis,[5]; 50 μM,3.2 fold
same,fold increase in the amount of mannose incorporated in proteins vs glycolysis,[5]; 12.5 (head prints no unit),1.9 fold
"O=c1c2cc(F)ccc2sn1-c1ccc(F)cc1 [Compound 21, 5-Fluoro-2-(4-fluorophenyl)-2-hydrobenzo[d]isothiazol-3-one]",IC50,[4],> 20 µM
same,Plasma Stability (% remaining after 1 hour),[6],71.4 % remaining
same,Plasma Stability (% remaining after 1 hour),[7],0.0 % remaining
same,Microsomal Stability (% remaining after 1 hour),[8],81.24 % remaining
same,Microsomal Stability (% remaining after 1 hour),[9],24.93 % remaining
same,Permeability,[10],High
"COc1ccc(-n2sc3ccc(F)cc3c2=O)cc1 [Compound 22, 5-Fluoro-2-(4-methoxyphenyl)-2-hydrobenzo[d]isothiazol-3-one]",IC50,[4],9.1 µM
same,Plasma Stability (% remaining after 1 hour),[6],96.3 % remaining
same,Plasma Stability (% remaining after 1 hour),[7],107.0 % remaining
same,Microsomal Stability (% remaining after 1 hour),[8],84.06 % remaining
same,Microsomal Stability (% remaining after 1 hour),[9],100 % remaining
same,Permeability,[10],Low
O=c1c2cc(F)ccc2sn1-c1ccccc1F [Compound 23],Plasma Stability (% remaining after 1 hour),[6],106.7 % remaining
same,Plasma Stability (% remaining after 1 hour),[7],35.7 % remaining
same,Microsomal Stability (% remaining after 1 hour),[8],98.40 % remaining
same,IC50,[3]; [13],4.3 µM
same,Microsomal Stability (% remaining after 1 hour),[9],27.66 % remaining
same,Permeability,[10],Medium
same,fold increase in the amount of mannose incorporated in proteins vs glycolysis,[5]; 25.0 μM,0.7 fold
same,fold increase in the amount of mannose incorporated in proteins vs glycolysis,[5]; 50 μM,2.5 fold
same,fold increase in the amount of mannose incorporated in proteins vs glycolysis,[5]; 12.5 (head prints no unit),9.1 fold
"O=c1c2cc(F)ccc2sn1-c1ccc(Cl)cc1 [Compound 24, 2-(4-Chlorophenyl)-5-fluoro-2-hydrobenzo[d]isothiazol-3-one]",IC50,[3]; [13],1.8 µM
Gentamicin,CONCURRENT (reference compound data),[11],0.3 µg/mL
